US6489469B1, “Method for storing or transporting erythritol solution” (Nikken Chemicals Co., Ltd., priority 1999, dated 2002)

System: Escherichia coli IFO 3972
Test: Viable Count of Escherichia coli IFO 3972 in Erythritol Solution
Type: cell-based
Protocol: Erythritol solutions of respective concentrations in the range of from 30 to 60% were prepared. To these were inoculated Staphylococcus aureus IFO 13276, Bacillus subtilis IFO 3134, and Escherichia coli IFO 3972 as bacteria, Candida albicans IFO 1549 and Saccharomyces cerevisiae ATCC 9763 as yeasts, Aspergillus niger IFO 6342, Aspergillus flavus IFO 6343, and Penicillium funiculosum IFO 6345 as fungi, respectively, in a population (concentration) of 10,000 cells/mL or more. After the inoculation, the solutions were stored at 30, 37, 45, 50, or 60° C., respectively, for 56 days and the number of viable cell was determined daily. The determination of the number of viable cell was performed by a method of coating 0.1 mL of appropriately diluted sample cultivation on an agar plate and cultivating and counting the number of viable cell (the number of colony) that grew after the cultivation.

OC[C@@H](O)[C@@H](O)CO [Erythritol Solution, erythritol]
3 days: time after which microbes died (temperature of 50° C. or more)
140 cells/mL: The Number of Viable Cell (37° C., 40% w/w, Day 7)
10000 or more cells/mL: The Number of Viable Cell (30° C., 40% w/w, Day 0) | The Number of Viable Cell (37° C., 30% w/w, Day 0) | The Number of Viable Cell (37° C., 30% w/w, Day 3) | The Number of Viable Cell (37° C., 40% w/w, Day 0) | The Number of Viable Cell (45° C., 30% w/w, Day 0) | The Number of Viable Cell (45° C., 40% w/w, Day 0) | The Number of Viable Cell (45° C., 50% w/w, Day 0) | The Number of Viable Cell (50° C., 30% w/w, Day 0) | The Number of Viable Cell (50° C., 40% w/w, Day 0) | The Number of Viable Cell (50° C., 50% w/w, Day 0)
prevented from growing: growth of the microbes (temperature of 50° C. or more)
10400 cells/mL: The Number of Viable Cell (30° C., 40% w/w, Day 3)
0 cells/mL: The Number of Viable Cell (30° C., 40% w/w, Day 28) | The Number of Viable Cell (30° C., 40% w/w, Day 56) | The Number of Viable Cell (37° C., 30% w/w, Day 14) | The Number of Viable Cell (37° C., 30% w/w, Day 28) | The Number of Viable Cell (37° C., 30% w/w, Day 56) | The Number of Viable Cell (37° C., 40% w/w, Day 14) | The Number of Viable Cell (37° C., 40% w/w, Day 28) | The Number of Viable Cell (37° C., 40% w/w, Day 56) | The Number of Viable Cell (45° C., 30% w/w, Day 7) | The Number of Viable Cell (45° C., 30% w/w, Day 14) | The Number of Viable Cell (45° C., 30% w/w, Day 28) | The Number of Viable Cell (45° C., 30% w/w, Day 56) | The Number of Viable Cell (45° C., 40% w/w, Day 3) | The Number of Viable Cell (45° C., 40% w/w, Day 7) | The Number of Viable Cell (45° C., 40% w/w, Day 14) | The Number of Viable Cell (45° C., 40% w/w, Day 28) | The Number of Viable Cell (45° C., 40% w/w, Day 56) | The Number of Viable Cell (45° C., 50% w/w, Day 3) | The Number of Viable Cell (45° C., 50% w/w, Day 7) | The Number of Viable Cell (45° C., 50% w/w, Day 14) | The Number of Viable Cell (45° C., 50% w/w, Day 28) | The Number of Viable Cell (45° C., 50% w/w, Day 56) | The Number of Viable Cell (50° C., 30% w/w, Day 3) | The Number of Viable Cell (50° C., 30% w/w, Day 7) | The Number of Viable Cell (50° C., 30% w/w, Day 14) | The Number of Viable Cell (50° C., 30% w/w, Day 28) | The Number of Viable Cell (50° C., 30% w/w, Day 56) | The Number of Viable Cell (50° C., 40% w/w, Day 3) | The Number of Viable Cell (50° C., 40% w/w, Day 7) | The Number of Viable Cell (50° C., 40% w/w, Day 14) | The Number of Viable Cell (50° C., 40% w/w, Day 28) | The Number of Viable Cell (50° C., 40% w/w, Day 56) | The Number of Viable Cell (50° C., 50% w/w, Day 3) | The Number of Viable Cell (50° C., 50% w/w, Day 7) | The Number of Viable Cell (50° C., 50% w/w, Day 14) | The Number of Viable Cell (50° C., 50% w/w, Day 28) | The Number of Viable Cell (50° C., 50% w/w, Day 56)
420 cells/mL: The Number of Viable Cell (30° C., 40% w/w, Day 14)
450 cells/mL: The Number of Viable Cell (45° C., 30% w/w, Day 3)
8270 cells/mL: The Number of Viable Cell (37° C., 30% w/w, Day 7)
2820 cells/mL: The Number of Viable Cell (30° C., 40% w/w, Day 7)
11100 cells/mL: The Number of Viable Cell (37° C., 40% w/w, Day 3)
